# Experiments:
# [1] = biological target: MAGL (Mus musculus (Mouse), UniProt O35678); assay: In vitro competitive activity-based protein profiling, MAGL (mouse); type: biochemical; conditions: for inhibition at 1 µM: read-out: MAGL % inh. 1 μM (mouse)
# Summary of the method: (§1)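 Residual MAGL and FAAH activity quantified from fluorescent gel bands after SDS-PAGE. Before that, FP-Rh or HT-01 probe (50 μM stock) labelled for 30 min at 37 °C, following 30 min inhibitor preincubation. Mouse assays used brain membrane fraction or cell lysates, human used prefrontal cortex or cell membranes, all at 1.0 mg/mL protein.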
# [2] = biological target: FAAH (Mus musculus (Mouse), UniProt O08914); assay: In vitro competitive activity-based protein profiling, FAAH (mouse); type: biochemical; conditions: for inhibition at 1 µM: read-out: FAAH % inh. 1 μM (mouse)
# Summary of the method: as §1
# FAAH, sequence (O08914 whole entry): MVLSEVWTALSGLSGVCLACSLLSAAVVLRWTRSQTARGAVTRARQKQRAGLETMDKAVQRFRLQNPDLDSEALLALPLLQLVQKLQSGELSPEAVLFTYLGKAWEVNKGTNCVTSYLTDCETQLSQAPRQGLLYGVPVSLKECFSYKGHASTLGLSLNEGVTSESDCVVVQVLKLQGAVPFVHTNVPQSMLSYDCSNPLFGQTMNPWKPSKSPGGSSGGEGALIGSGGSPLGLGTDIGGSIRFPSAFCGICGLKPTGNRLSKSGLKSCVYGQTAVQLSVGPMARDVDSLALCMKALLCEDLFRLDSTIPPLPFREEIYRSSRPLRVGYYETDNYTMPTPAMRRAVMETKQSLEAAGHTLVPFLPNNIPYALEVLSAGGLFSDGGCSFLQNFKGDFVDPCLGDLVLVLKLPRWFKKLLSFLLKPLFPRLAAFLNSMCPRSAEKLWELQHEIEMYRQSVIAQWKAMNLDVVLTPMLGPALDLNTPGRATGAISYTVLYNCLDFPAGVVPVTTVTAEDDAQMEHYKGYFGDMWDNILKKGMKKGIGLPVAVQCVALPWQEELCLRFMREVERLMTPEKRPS
# MAGL, sequence (O35678 whole entry): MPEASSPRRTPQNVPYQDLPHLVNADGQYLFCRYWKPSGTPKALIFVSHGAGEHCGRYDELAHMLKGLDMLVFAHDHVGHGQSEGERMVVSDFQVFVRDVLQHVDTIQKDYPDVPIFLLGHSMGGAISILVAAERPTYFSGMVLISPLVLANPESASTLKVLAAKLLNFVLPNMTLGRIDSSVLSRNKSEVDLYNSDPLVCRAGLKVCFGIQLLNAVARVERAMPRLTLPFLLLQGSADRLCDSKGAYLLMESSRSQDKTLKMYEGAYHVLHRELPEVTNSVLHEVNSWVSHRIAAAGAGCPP
inhibition at 1 µM [1],inhibition at 1 µM [2],IC50 [1],IC50 [2],SMILES
25 to 50%,25 to 50%,,,"CC(=O)N(C)c1cnn(C(=O)N2CC3(CCN(Cc4ccccc4C)CC3)C2)c1 [Example 89, N-methyl-N-(1-(7-(2-methylbenzyl)-2,7-diazaspiro[3.5]nonane-2-carbonyl)-1H-pyrazol-4-yl)acetamide]"
≥ 75%,50 to 75%,,,"CS(=O)(=O)Nc1cnn(C(=O)N2CCN(Cc3ccc(-c4ccccc4)cc3OCc3ccccc3)CC2)c1 [Example 224, N-(1-(4-((3-(benzyloxy)-[1,1′-biphenyl]-4-yl)methyl)piperazine-1-carbonyl)-1H-pyrazol-4-yl)methanesulfonamide]"
25 to 50%,≥ 75%,,,"CC(=O)N(C)c1cnn(C(=O)N2CCC3(CCN(Cc4ccc(N5CCCC5)cc4)C3)C2)c1 (stereo not drawn) [Example 47, N-methyl-N-(1-(7-(4-(pyrrolidin-1-yl)benzyl)-2,7-diazaspiro[4.4]nonane-2-carbonyl)-1H-pyrazol-4-yl)acetamide]"
≥ 75%,≥ 75%,,,"CC(=O)N(C)c1cnn(C(=O)N2CC3CN(Cc4ccc(-c5cccnn5)cc4Cl)CC3C2)c1 (stereo not drawn) [Example 260, N-(1-(5-(2-chloro-4-(pyridazin-3-yl)benzyl)octahydropyrrolo[3,4-c]pyrrole-2-carbonyl)-1H-pyrazol-4-yl)-N-methylacetamide]"
≥ 75%,≥ 75%,100 to 1000 nM,≤ 100 nM,"CC(=O)N(C)c1cnn(C(=O)N2CCC3(CCN(Cc4ccc(Cl)c(Cl)c4)C3)C2)c1 (stereo not drawn) [Example 1, N-(1-(7-(3,4-dichlorobenzyl)-2,7-diazaspiro[4.4]nonane-2-carbonyl)-1H-pyrazol-4-yl)-N-methylacetamide]"
,,100 to 1000 nM,≤ 100 nM,"CC(=O)N(C)c1cnn(C(=O)N2CCC3(CCN(Cc4cccc(C(F)(F)F)c4)C3)C2)c1 (single isomer, unassigned) [Example 66, N-methyl-N-(1-(7-(3-(trifluoromethyl)benzyl)-2,7-diazaspiro[4.4]nonane-2-carbonyl)-1H-pyrazol-4-yl)acetamide]"
≥ 75%,50 to 75%,,,"CC(=O)N(C)c1cnn(C(=O)N2C[C@H]3C[C@H](N(C)Cc4cc(C(F)(F)F)ccc4N4CCCC4)C[C@H]3C2)c1 [Example 144, N-methyl-N-(1-(trans-5-(methyl(2-(pyrrolidin-1-yl)-5-(trifluoromethyl)benzyl)amino)octahydrocyclopenta[c]pyrrole-2-carbonyl)-1H-pyrazol-4-yl)acetamide]"
≥ 75%,≥ 75%,≤ 100 nM,≤ 100 nM,"CC(=O)N(C)c1cnn(C(=O)N2CC3CN(Cc4cc(Cl)cc(N5CC6COCC6C5)c4)CC3C2)c1 (stereo not drawn) [Example 118, N-(1-(5-(3-chloro-5-(tetrahydro-1H-furo[3,4-c]pyrrol-5(3H)-yl)benzyl)octahydropyrrolo[3,4-c]pyrrole-2-carbonyl)-1H-pyrazol-4-yl)-N-methylacetamide]"
≥ 75%,≥ 75%,,,"CC(=O)N(C)c1cnn(C(=O)N2CC3CN(Cc4ccc(N5CCOCC5)c(C(F)(F)F)c4)CC3C2)c1 (stereo not drawn) [Example 99, N-methyl-N-(1-(5-(4-morpholino-3-(trifluoromethyl)benzyl)octahydropyrrolo[3,4-c]pyrrole-2-carbonyl)-1H-pyrazol-4-yl)acetamide]"
≥ 75%,≥ 75%,,,"CC(=O)N(C)c1cnn(C(=O)N2C[C@H]3C[C@H](N(C)Cc4ccc(N5CCCC5)cc4C(F)(F)F)C[C@H]3C2)c1 [Example 158, N-methyl-N-(1-(trans-5-(methyl(4-(pyrrolidin-1-yl)-2-(trifluoromethyl)benzyl)amino)octahydrocyclopenta[c]pyrrole-2-carbonyl)-1H-pyrazol-4-yl)acetamide]"
≥ 75%,≥ 75%,≤ 100 nM,≤ 100 nM,"CC(=O)N(C)c1cnn(C(=O)N2CC3CN(Cc4ccccc4C(F)(F)F)CC3C2)c1 (stereo not drawn) [Example 96, N-methyl-N-(1-(5-(2-(trifluoromethyl)benzyl)octahydropyrrolo[3,4-c]pyrrole-2-carbonyl)-1H-pyrazol-4-yl)acetamide]"
≥ 75%,≥ 75%,≤ 100 nM,≤ 100 nM,"CC(=O)N(C)c1cnn(C(=O)N2CC3CN(Cc4cccc(Oc5ccccc5Cl)c4)CC3C2)c1 (stereo not drawn) [Example 240, N-(1-(5-(3-(2-chlorophenoxy)benzyl)octahydropyrrolo [3,4-c]pyrrole-2-carbonyl)-1H-pyrazol-4-yl)-N-methylacetamide]"
≥ 75%,≥ 75%,≤ 100 nM,≤ 100 nM,"CC(=O)N(C)c1cnn(C(=O)N2CC3CN(Cc4ccc(C(F)(F)F)c(N5CCOCC5)c4)CC3C2)c1 (stereo not drawn) [Example 124, N-methyl-N-(1-(5-(3-morpholino-4-(trifluoromethyl)benzyl)octahydropyrrolo[3,4-c]pyrrole-2-carbonyl)-1H-pyrazol-4-yl)acetamide]"
≥ 75%,≥ 75%,≤ 100 nM,≤ 100 nM,"CC(=O)N(C)c1cnn(C(=O)N2CC3CN(Cc4cc(N5CCCC5)cc(C(F)(F)F)c4)CC3C2)c1 (stereo not drawn) [Example 112, N-methyl-N-(1-(5-(3-(pyrrolidin-1-yl)-5-(trifluoromethyl)benzyl)octahydropyrrolo[3,4-c]pyrrole-2-carbonyl)-1H-pyrazol-4-yl)acetamide]"
≥ 75%,≥ 75%,100 to 1000 nM,≤ 100 nM,"CC(=O)N(C)c1cnn(C(=O)N2CCC3(CCN(Cc4ccc(-c5ccncn5)cc4Cl)C3)C2)c1 (stereo not drawn) [Example 273, N-(1-(7-(2-chloro-4-(pyrimidin-4-yl)benzyl)-2,7-diazaspiro[4.4]nonane-2-carbonyl)-1H-pyrazol-4-yl)-N-methylacetamide]"
≥ 75%,≥ 75%,,,"CC(=O)N(C)c1cnn(C(=O)N2CC3CN(Cc4cc(C(F)(F)F)ccc4N4CCCC4)CC3C2)c1 (stereo not drawn) [Example 128, N-methyl-N-(1-(5-(2-(pyrrolidin-1-yl)-5-(trifluoromethyl)benzyl)octahydropyrrolo[3,4-c]pyrrole-2-carbonyl)-1H-pyrazol-4-yl)acetamide]"
≥ 75%,≥ 75%,,,"CC(=O)N(C)c1cnn(C(=O)N2CC3CN(Cc4cc(Cl)ccc4C(F)(F)F)CC3C2)c1 (stereo not drawn) [Example 104, N-(1-(5-(5-chloro-2-(trifluoromethyl)benzyl)octahydropyrrolo[3,4-c]pyrrole-2-carbonyl)-1H-pyrazol-4-yl)-N-methylacetamide]"
≥ 75%,≥ 75%,,,"CC(=O)N(C)c1cnn(C(=O)N2C[C@H]3C[C@H](NCc4ccc(Cl)cc4)C[C@H]3C2)c1 [Example 138, N-(1-(trans-5-(4-chlorobenzylamino)octahydrocyclopenta[c]pyrrole-2-carbonyl)-1H-pyrazol-4-yl)-N-methylacetamide]"
≥ 75%,≥ 75%,,,"CC(=O)N(C)c1cnn(C(=O)N2C[C@H]3C[C@H](N(C)Cc4cc(Cl)ccc4Cl)C[C@H]3C2)c1 [Example 165, N-(1-(trans-5-((2,5-dichlorobenzyl)(methyl)amino)octahydrocyclopenta[c]pyrrole-2-carbonyl)-1H-pyrazol-4-yl)-N-methylacetamide]"
≥ 75%,≥ 75%,,,"CC(=O)N(C)c1cnn(C(=O)N2CCC3(CCN(Cc4ccc(-c5cccnn5)cc4Cl)C3)C2)c1 (stereo not drawn) [Example 263, N-(1-(7-(2-chloro-4-(pyridazin-3-yl)benzyl)-2,7-diazaspiro[4.4]nonane-2-carbonyl)-1H-pyrazol-4-yl)-N-methylacetamide]"
≥ 75%,≥ 75%,,,"CC(=O)N(C)c1cnn(C(=O)N2CC3CN(Cc4ccc(Cl)c(N5CCOCC5)c4)CC3C2)c1 (stereo not drawn) [Example 129, N-(1-(5-(4-chloro-3-morpholinobenzyl)octahydropyrrolo[3,4-c]pyrrole-2-carbonyl)-1H-pyrazol-4-yl)-N-methylacetamide]"
50 to 75%,25 to 50%,,,"CC(=O)N(C)c1cnn(C(=O)N2CC3(CCN(Cc4ccc(C)cc4)CC3)C2)c1 [Example 87, N-methyl-N-(1-(7-(4-methylbenzyl)-2,7-diazaspiro[3.5]nonane-2-carbonyl)-1H-pyrazol-4-yl)acetamide]"
50 to 75%,25 to 50%,,,"COc1ccc(CN2CC3(CCN(C(=O)n4cc(N(C)C(C)=O)cn4)CC3)C2)cc1 [Example 33, N-(1-(2-(4-methoxybenzyl)-2,7-diazaspiro[3.5]nonane-7-carbonyl)-1H-pyrazol-4-yl)-N-methylacetamide]"

SMILES,inhibition at 1 µM [1],inhibition at 1 µM [2],IC50 [1],IC50 [2]
"CC(=O)N(C)c1cnn(C(=O)N2C[C@H]3C[C@H](N(C)Cc4ccc(N5C6CCC5COC6)cc4C(F)(F)F)C[C@H]3C2)c1 [Example 155, N-(1-(trans-5-((4-(3-oxa-8-azabicyclo[3.2.1]octan-8-yl)-2-(trifluoromethyl)benzyl)(methyl)amino)octahydrocyclopenta[c]pyrrole-2-carbonyl)-1H-pyrazol-4-yl)-N-methylacetamide]",≥ 75%,≥ 75%,,
"CC(=O)N(C)c1cnn(C(=O)N2C[C@H]3C[C@@H](N(C)Cc4ccc(N5C6CCC5COC6)c(C(F)(F)F)c4)C[C@H]3C2)c1 [Example 150, N-(1-(cis-5-((4-(3-oxa-8-azabicyclo[3.2.1]octan-8-yl)-3-(trifluoromethyl)benzyl)(methyl)amino)octahydrocyclopenta[c]pyrrole-2-carbonyl)-1H-pyrazol-4-yl)-N-methylacetamide]",≥ 75%,≥ 75%,100 to 1000 nM,≤ 100 nM
